Experimental findings from ChEMBL document CHEMBL1201862, “PubChem BioAssay data set” (2004) are described below.

Some test systems named below: UACC-62; A549; SN12C; COLO 205; ACHN; HCT-116; EKVX; IGROV-1; K562; RXF 393; UACC-257; SK-MEL-2; UO-31; OVCAR-5; SK-MEL-5; NCI-H460; KM12; RPMI-8226; SK-MEL-28; LOX IMVI.
Common to all, as to assay: growth of human tumour cells (NCI), 48 h

Each structure is given as a SMILES string.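 Five compound concentrations were applied to cells in 96-well plates for 48 hours; endpoints were derived by simple linear interpolation of the resulting dose-response curve. Abbreviation: GI50, concentration required for 50% inhibition of growth.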 Activity calls are given as the source filed them. No stated cut-off is given here; in the data, active = GI50 up to about 1.1 µM and inactive = higher. Where only a bound is given, the exact number is not on record here.

Regarding `CCOC(=O)c1c(N=C(S)Nc2ccccc2)sc2c1CCN(C)C2`, the GI50 in the test on UACC-62, with A549, in the test on SN12C, in the test on COLO 205, with ACHN and in the test on HCT-116 was > 100 µM (inactive) throughout. For the same molecule, the GI50 in the test on EKVX, in the test with IGROV-1, in the test on K562, in the test on RXF 393, in the test on UACC-257 and in the test on SK-MEL-2 was > 100 µM (inactive) each time. Besides, the GI50 in the test with UO-31, in the test with OVCAR-5, with SK-MEL-5, in the test with NCI-H460, in the test with KM12 and in the test on RPMI-8226 was > 100 µM (inactive) throughout.

In the case of `N#C/C(=C1/Sc2c(nc[nH]c2=O)N1c1ccccc1)c1nc2ccccc2[nH]1`, the GI50 with UACC-62, in the test with A549, in the test on SN12C, with COLO 205, in the test on ACHN and in the test on HCT-116 was > 100 µM (inactive) each time. Also, the GI50 in the test with EKVX, in the test on IGROV-1, in the test with K562, in the test on UACC-257, with SK-MEL-2 and in the test on SK-MEL-28 was > 100 µM (inactive) each time. The GI50 in the test with UO-31, in the test with OVCAR-5, in the test on SK-MEL-5, with NCI-H460, with KM12 and in the test on RPMI-8226 was > 100 µM (inactive) each time.

Consider `O=C(c1nc2ccc(Cl)cc2nc1O)C(O)c1ccccc1` (configuration not stated), for which the GI50 in the test on UACC-62 is 96.8 µM (inactive); in the test on A549, 35.2 µM (inactive); in the test on SN12C it was > 100 µM (inactive); in the test with COLO 205 it was > 100 µM (inactive); in the test on ACHN it was 39 µM (inactive); in the test on HCT-116 it was > 100 µM (inactive). For the same molecule, the GI50 with EKVX is 22 µM (inactive); in the test on IGROV-1, > 100 µM (inactive); with K562, 21.8 µM (inactive); in the test with UACC-257, > 100 µM (inactive); with SK-MEL-2 it was > 100 µM (inactive); in the test with SK-MEL-28, 68.7 µM (inactive). Moreover, the GI50 in the test with LOX IMVI is 34.8 µM (inactive); in the test on UO-31, > 100 µM (inactive); with OVCAR-5, > 100 µM (inactive); in the test with SK-MEL-5, > 100 µM (inactive); with NCI-H460, > 100 µM (inactive); with KM12, 51.2 µM (inactive). For the same molecule, the GI50 in the test with RPMI-8226 was 3.85 µM (inactive).

With `c1ccc2c(c1)CCCC/C2=N/OCC1CO1` (configuration not stated), the GI50 in the test with A549 is 56.4 µM (inactive); in the test on SN12C, 51.5 µM (inactive); in the test on COLO 205, 48.8 µM (inactive); with ACHN, 99.1 µM (inactive); in the test on HCT-116 it was 45 µM (inactive); with EKVX it was 56.9 µM (inactive). In addition, the GI50 in the test on IGROV-1 is 50.8 µM (inactive); in the test with K562, 41.2 µM (inactive); with RXF 393, 53.6 µM (inactive); in the test with UACC-257, 46.5 µM (inactive); in the test with SK-MEL-2, > 100 µM (inactive); in the test on SK-MEL-28, 61 µM (inactive). Also, the GI50 with LOX IMVI is 32.9 µM (inactive); in the test with UO-31, < 0.01 µM (active); in the test with SK-MEL-5 it was 35.5 µM (inactive); in the test with NCI-H460 it was 80.7 µM (inactive); in the test with KM12 it was 35.9 µM (inactive); with RPMI-8226 it was 30.3 µM (inactive).

Turning to `C=C1[C@@H]2CCC(C)(C)[C@H]1CCC(=O)[C@@H]2C(=O)OC`, the GI50 in the test with UACC-62, with A549, with SN12C, with COLO 205, with ACHN and with HCT-116 was > 100 µM (inactive) throughout. Further, the GI50 in the test with EKVX, in the test with IGROV-1, with K562, with RXF 393, in the test on UACC-257 and in the test on SK-MEL-2 was > 100 µM (inactive) throughout. Besides, the GI50 with SK-MEL-28, with LOX IMVI, in the test on UO-31, in the test with SK-MEL-5, in the test on NCI-H460 and in the test with RPMI-8226 was > 100 µM (inactive) throughout.

Take `COC(=O)C(=O)Cc1nc2ccccc2o1`: the GI50 in the test on UACC-62, with SN12C, in the test with ACHN, in the test with HCT-116, with EKVX and in the test on K562 was > 100 µM (inactive) each time. Further, the GI50 with RXF 393, with UACC-257, with SK-MEL-2, with SK-MEL-28, with LOX IMVI and with UO-31 was > 100 µM (inactive) in each case. The GI50 with OVCAR-5, with NCI-H460 and in the test on KM12 was > 100 µM (inactive) each time.

Regarding `CC1CC/C(=C\c2ccc(Cl)cc2)C(=O)/C1=C\c1ccc(Cl)cc1` (configuration not stated), the GI50 in the test with UACC-62 is 25.4 µM (inactive); in the test on A549, 35.3 µM (inactive); in the test on SN12C, 30.8 µM (inactive); in the test with COLO 205, 32.1 µM (inactive); in the test on ACHN it was 32.9 µM (inactive); with HCT-116, 32.6 µM (inactive). Further, the GI50 in the test on EKVX was 26.4 µM (inactive); with IGROV-1, 22.4 µM (inactive); with K562 it was 41 µM (inactive); in the test on RXF 393 it was 33.9 µM (inactive); in the test on UACC-257, 42.7 µM (inactive); in the test with SK-MEL-2, 20.4 µM (inactive). For the same molecule, the GI50 in the test on SK-MEL-28 is 53.1 µM (inactive); in the test with LOX IMVI it was 31.8 µM (inactive); in the test on UO-31, 36.4 µM (inactive); with OVCAR-5 it was 21.6 µM (inactive); in the test on SK-MEL-5 it was 20.4 µM (inactive); with KM12, 18.7 µM (inactive).

On to `N#CCc1c(F)c(F)c(F)c(F)c1F`, for which the GI50 with UACC-62, in the test on A549, in the test with SN12C, in the test on COLO 205, in the test on ACHN and in the test on HCT-116 was > 100 µM (inactive) in each case. For the same molecule, the GI50 with EKVX, in the test with IGROV-1, with K562, in the test with RXF 393, with UACC-257 and in the test on SK-MEL-28 was > 100 µM (inactive) each time. For the same molecule, the GI50 with LOX IMVI is > 100 µM (inactive); in the test on UO-31, > 100 µM (inactive); in the test with OVCAR-5, > 100 µM (inactive); with SK-MEL-5 it was 54.6 µM (inactive); in the test with KM12, > 100 µM (inactive); with RPMI-8226, > 100 µM (inactive).

For `COc1ccc(-c2c3c(nc4nc(SCCc5ccccc5)nc(N)c24)CCCC3)cc1OC`, the GI50 in the test on UACC-62, in the test with A549, in the test on SN12C, with COLO 205, in the test with ACHN and in the test with HCT-116 was > 100 µM (inactive) each time. In addition, the GI50 is > 100 µM (inactive) with EKVX; > 100 µM (inactive) with IGROV-1; > 100 µM (inactive) in the test on K562; 24.9 µM (inactive) in the test on RXF 393; > 100 µM (inactive) in the test with UACC-257; > 100 µM (inactive) in the test on SK-MEL-28. For the same molecule, the GI50 with LOX IMVI, with UO-31, in the test on OVCAR-5, in the test on SK-MEL-5, in the test with NCI-H460 and with KM12 was > 100 µM (inactive) in each case. In addition, the GI50 in the test with RPMI-8226 was > 100 µM (inactive).

Turning to `CCOC(=O)c1cc(C2CCN(Cc3ccccc3)C2=S)c(C(=O)C=[N+]=[N-])[nH]1` (configuration not stated), the GI50 is 18.3 µM (inactive) in the test with UACC-62; 26.4 µM (inactive) in the test on A549; 33.8 µM (inactive) in the test on COLO 205; 27.2 µM (inactive) in the test with ACHN; 40.5 µM (inactive) in the test on HCT-116; 26.7 µM (inactive) in the test on EKVX. The GI50 is 24.7 µM (inactive) in the test with IGROV-1; 64.6 µM (inactive) in the test with K562; 31 µM (inactive) with RXF 393; 25.8 µM (inactive) in the test with UACC-257; 21.2 µM (inactive) with SK-MEL-2; 26 µM (inactive) with SK-MEL-28. The GI50 was 18.8 µM (inactive) in the test on UO-31; 30.3 µM (inactive) with OVCAR-5; 19.3 µM (inactive) in the test on SK-MEL-5; 23.9 µM (inactive) in the test on NCI-H460; 55.5 µM (inactive) in the test with KM12; 45.9 µM (inactive) in the test on RPMI-8226.

Turning to `CCO[C@]12C[C@H](OC)[C@@]3(O)CC(C1[C@H]3O)C13C4C2[C@H](OC)C1[C@](COC)(CN4CC)[C@H](O)C[C@@H]3OC` (some centres not stated), the GI50 was > 100 µM (inactive) in the test with UACC-62; > 100 µM (inactive) in the test on A549; > 100 µM (inactive) with SN12C; > 100 µM (inactive) in the test on COLO 205; 66.2 µM (inactive) with ACHN; > 100 µM (inactive) in the test on HCT-116. In addition, the GI50 with EKVX, in the test with IGROV-1, in the test with K562, with RXF 393, in the test with UACC-257 and in the test on SK-MEL-28 was > 100 µM (inactive) throughout. For the same molecule, the GI50 in the test with LOX IMVI, in the test with UO-31, in the test on OVCAR-5, with SK-MEL-5, in the test on NCI-H460 and with RPMI-8226 was > 100 µM (inactive) throughout.
